Patent US20180140578A1, “METHODS AND COMPOSITIONS FOR THE DIAGNOSIS AND SELECTIVE TREATMENT OF CANCER” (Board of Regents of the University of Texas System, priority 2016, published 2018)

Columns and labels:
[1] = target: T1, DCAF15-3xFLAG and RBM39Δ150 (Homo sapiens, UniProt Q14498+Q66K64); experiment: RBM39Δ150 pulldown assay; type: binding
T1 construct: Full-length cDNAs encoding CUL4A, CUL4B, DCAF15, and DDB1 were cloned into pLVX IRES Puro; made in house; host or cells: RBM39Δ150: Sf9 (baculovirus); DCAF15-3xFLAG: anti-FLAG beads from HCT-116 or 293T cells stably expressing it
Protocol: RBM39 lacking the first 150 amino acids after the start codon (RBM39Δ150) was cloned into the pFastBac1 (Life Technologies) vector. Site-directed Mutagenesis of RBM39 was performed using Q5 site-directed mutagenesis kit (NEB). DCAF15-GST (C-terminal GST tag) and DDB1 were also cloned into pFastBac1. The production of baculovirus was carried out following vendor's instructions. Protein was expressed in SF9 cells by infection with each protein specific baculovirus, and cells were harvested 48 hr later and frozen in liquid nitrogen. For purification of RBM39Δ150, frozen cells were pulverized by cryomill and resuspended in lysis buffer (40 mM Tris, pH 7.5, 225 mM NaCl, 1× […] Protease inhibitor). The lysate was passed through a 22 gauge needle 2 times followed by ultracentrifugation at 25000 rpm for 30 min. Clarified lysate was incubated with Ni-NTA agarose (Qiagen) for 30 min with rotation at 4° C. Resin and bound protein were washed with wash buffer 1 (40 mM Tris, pH 7.5, 225 mM NaCl) followed by wash buffer 2 (40 mM Tris, pH 7.5, 20 mM imidazole, 225 mM NaCl). Proteins were eluted with elution buffer (40 mM Tris, pH 7.5, 300 mM imidazole, 225 mM NaCl) and concentrated to 0.5 ml. Concentrated proteins were then fractionated on Superdex 200 Increase 10/300 GL (GE Healthcare). RBM39Δ150 and mutants eluted at 14.8 ml after injection and were stored at −80° C. in 40 mM Tris, pH 7.5, 225 mM NaCl. For purification of DCAF15-GST/DDB1, Sf9 cells co-infected with DCAF15-GST and DDB1 baculoviruses were lysed in PBS supplemented with 0.1% NP40, 1× […] Protease inhibitors, and 0.5 mM PMSF. The lysate was passed through a 22 gauge needle 2 times followed by centrifugation at 7000 rpm for 15 min. Clarified lysate was incubated with Glutathione Sepharose 4B resin (GE healthcare) for 30 min with rotation at 4° C. Resin was washed with PBS for three times before elution with 50 mM Tris, 10 mM glutathione, pH 8.
HCT-116 cells stably expressing DDB1-3xFLAG, CUL4A-3xFLAG, CUL4B-3xFLAG, or to DCAF15-3xFLAG were lysed in 1×PBS, 0.1% NP40, and 1× […] protease inhibitor (1 ml per […] plate). […]

[2] = system: pre-mRNA splicing in HCT-116 cells harboring RBM39 G268V; experiment: RNA-seq analysis of splicing changes, RBM39 G268V; type: cell-based, human; settings: 2 μM indisulam
Description: RNAs were extracted using Quick-RNA MiniPrep kit (Zymo Research). After cleaning up genomic DNA contaminant with Turbo DNase (Life Technologies) and rRNA depletion, strand-specific cDNA libraries were generated using the TruSeq Stranded mRNA Sample Prep Kit (IIlumina) and were subjected to high throughput sequencing using
HiSeq2500 platform (Illumina) with 100-bp single-end reads. NGS QC Toolkit (v2.3.1) (49) was used to check the sequencing quality, and high-quality reads were aligned by TopHat (v2.0.8) (50) to human reference genome (hg19) along with the gene annotation data downloaded from Illumina's iGenomes (support.illumina.com/sequencing/sequencing_software/igenome.ilmn). The insert-size metrics required in TopHat execution and the correctness of strand specificity were estimated by mapping reads to human transcript sequences using Bowtie (v2.1.0) (51) and Picard-tools (v1.99) (picard.sourceforge.net). The htseq-count script distributed with the HTSeq Python package (0.6.1) (pypi.python.org/pypi/HTSeq) was employed for counting reads in genes considering the coding strands. Source data for RNA sequencing data is available under NCBI SRA accession SRP096666.
For the stringent detection of differential skipped exons and retained introns, a custom program called SpliceFisher was developed and it is downloadable at github.com/jiwoongbio/SpliceFisher. […]

HCC78 and H1373 = experiment: 3 day viability assay, U2AF1 mutant lung cancer cell lines; type: cell-based, human
Description: HCC78 and H1373 non-small cell lung cancer cell lines harbor a heterozygous mutations (C to T) in U2AF1 leading to a Serine to Phenylalanine mutation at position 34. FIG. 19 depicts Sanger sequencing of a RT-PCR product from both cell lines. […] Thus, mutations in splicing factor U2AF1 can be used as a biomarker for treating cancer, in a DCAF15 independent manner or together with the DCAF15 biomarker.

T1 sequence (Q66K64 whole entry, stated change not applied): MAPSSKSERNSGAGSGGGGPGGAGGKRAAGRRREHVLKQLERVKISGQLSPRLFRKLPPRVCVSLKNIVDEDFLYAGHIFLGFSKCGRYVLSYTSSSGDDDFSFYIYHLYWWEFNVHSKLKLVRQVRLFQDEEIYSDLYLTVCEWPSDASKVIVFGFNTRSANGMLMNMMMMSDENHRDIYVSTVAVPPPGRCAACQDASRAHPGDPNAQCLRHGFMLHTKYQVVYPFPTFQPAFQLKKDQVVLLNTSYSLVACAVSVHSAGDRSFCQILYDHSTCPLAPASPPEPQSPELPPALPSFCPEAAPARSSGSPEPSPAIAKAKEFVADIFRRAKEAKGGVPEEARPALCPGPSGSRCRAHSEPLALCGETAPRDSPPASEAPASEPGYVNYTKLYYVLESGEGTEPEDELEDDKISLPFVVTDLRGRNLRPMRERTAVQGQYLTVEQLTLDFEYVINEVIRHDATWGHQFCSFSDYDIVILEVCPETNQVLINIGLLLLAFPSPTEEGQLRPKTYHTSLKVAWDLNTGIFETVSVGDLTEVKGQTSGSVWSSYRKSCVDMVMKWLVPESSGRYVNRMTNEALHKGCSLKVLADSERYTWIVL
T1 sequence (Q14498 151-530 limits assumed, stated change not applied): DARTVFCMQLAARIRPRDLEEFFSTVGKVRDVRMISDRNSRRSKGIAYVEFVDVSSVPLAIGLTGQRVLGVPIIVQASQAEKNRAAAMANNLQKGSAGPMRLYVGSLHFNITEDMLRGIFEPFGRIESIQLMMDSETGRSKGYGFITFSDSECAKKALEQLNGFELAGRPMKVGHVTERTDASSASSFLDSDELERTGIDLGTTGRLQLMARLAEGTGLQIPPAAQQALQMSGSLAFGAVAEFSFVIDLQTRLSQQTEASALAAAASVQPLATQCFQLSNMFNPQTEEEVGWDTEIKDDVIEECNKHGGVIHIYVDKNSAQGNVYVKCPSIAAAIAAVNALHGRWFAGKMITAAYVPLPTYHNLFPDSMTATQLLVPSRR
T1 sequence (Q16531 whole entry partner): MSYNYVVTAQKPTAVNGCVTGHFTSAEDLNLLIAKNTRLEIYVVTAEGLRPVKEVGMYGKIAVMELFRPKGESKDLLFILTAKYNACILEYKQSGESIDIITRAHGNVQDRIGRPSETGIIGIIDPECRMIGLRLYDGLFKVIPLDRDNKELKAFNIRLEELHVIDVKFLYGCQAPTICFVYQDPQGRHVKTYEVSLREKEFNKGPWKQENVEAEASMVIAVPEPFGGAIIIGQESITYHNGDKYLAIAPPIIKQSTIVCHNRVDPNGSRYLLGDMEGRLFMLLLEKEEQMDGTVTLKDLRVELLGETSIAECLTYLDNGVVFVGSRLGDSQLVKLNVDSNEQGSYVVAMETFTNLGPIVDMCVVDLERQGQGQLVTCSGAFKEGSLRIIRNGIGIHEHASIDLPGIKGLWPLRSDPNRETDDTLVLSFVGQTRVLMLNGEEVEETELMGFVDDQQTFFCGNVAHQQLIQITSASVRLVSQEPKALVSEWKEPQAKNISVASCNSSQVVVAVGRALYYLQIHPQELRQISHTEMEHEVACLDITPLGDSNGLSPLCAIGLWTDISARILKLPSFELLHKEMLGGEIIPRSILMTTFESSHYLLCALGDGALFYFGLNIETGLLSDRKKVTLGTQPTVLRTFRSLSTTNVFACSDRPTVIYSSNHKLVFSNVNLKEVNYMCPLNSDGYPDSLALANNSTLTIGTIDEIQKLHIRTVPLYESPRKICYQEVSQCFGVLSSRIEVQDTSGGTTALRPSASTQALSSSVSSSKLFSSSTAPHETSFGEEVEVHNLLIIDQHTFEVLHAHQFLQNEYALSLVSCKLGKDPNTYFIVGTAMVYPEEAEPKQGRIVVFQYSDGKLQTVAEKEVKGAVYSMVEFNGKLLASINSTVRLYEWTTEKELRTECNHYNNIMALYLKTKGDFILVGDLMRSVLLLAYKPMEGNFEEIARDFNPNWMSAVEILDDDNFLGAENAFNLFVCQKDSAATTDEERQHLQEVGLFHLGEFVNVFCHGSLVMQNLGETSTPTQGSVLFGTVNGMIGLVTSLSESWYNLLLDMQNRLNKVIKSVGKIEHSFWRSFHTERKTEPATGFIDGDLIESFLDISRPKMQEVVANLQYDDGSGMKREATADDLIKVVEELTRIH

## NS(=O)(=O)c1ccc(S(=O)(=O)Nc2cccc3c(Cl)c[nH]c23)cc1 [Indisulam, indisulam]
[1]; in the presence of indisulam, not DDB1, CUL4A or CUL4B
  co-purification of DCAF15 with RBM39Δ150: co-purified
[1]; wild type RBM39Δ150
  indisulam concentration at which RBM39Δ150-DCAF15 complex was apparent: 0.10 µM
[2]; HCT-116 RBM39 G268V
  exon skipping events: 3
[2]; cells expressing the RBM39 G268V allele
  intron retention events: no intron retention event
HCC78 and H1373
  sensitivity of cancer cell lines harboring a mutation in U2AF1: sensitive
